Reference: ChEMBL document CHEMBL1140472, “Antioxidant properties and free radical-scavenging reactivity of a family of hydroxynaphthalenones and dihydroxyanthracenones” (Bioorg Med Chem, 2007)

assay: Hydroxyl radical scavenging activity assessed as Trolox equivalent antioxidant capacity; assay type: functional

Row | Structure (SMILES) | Ratio
1 | CC1C=CC(CO)c2c(O)c3c(c(O)c21)C(=O)C=CC3(C)C (stereo unspecified) | 5.1
2 | COc1ccc(O)c2c1C(=O)C=CC2(C)C | 3.42
3 | CC1C=CC(CO)c2c(O)c3c(c(O)c21)C(C)(C)C=CC3=O (stereo unspecified) | 6.41
4 | CC1(C)C=CC(=O)c2c(O)ccc(O)c21 | 3.76
5 | CC1(C)C=CC(=O)c2c(O)c3c(c(O)c21)CC=CC3 | 5.86
6 | COc1ccc(O)c2c1C(C)(C)C=CC2=O | 1.56

assay: Galvinoxyl radical scavenging activity by ESR; assay type: functional; parameters: concentration or dose not given beside the values

Row | Structure (SMILES) | Activity
7 | CC1C=CC(CO)c2c(O)c3c(c(O)c21)C(=O)C=CC3(C)C (stereo unspecified) | 0%
8 | COc1ccc(O)c2c1C(=O)C=CC2(C)C | 0%
9 | CC1C=CC(CO)c2c(O)c3c(c(O)c21)C(C)(C)C=CC3=O (stereo unspecified) | 0%
10 | CC1(C)C=CC(=O)c2c(O)ccc(O)c21 | 0%
11 | CC1(C)C=CC(=O)c2c(O)c3c(c(O)c21)CC=CC3 | 0%
12 | COc1ccc(O)c2c1C(C)(C)C=CC2=O | 0%

assay: Hydroxyl radical scavenging activity at 1.0 mM by ESR; assay type: functional

Row | Structure (SMILES) | Activity
13 | CC1C=CC(CO)c2c(O)c3c(c(O)c21)C(=O)C=CC3(C)C (stereo unspecified) | 71.3%
14 | COc1ccc(O)c2c1C(=O)C=CC2(C)C | 48.2%
15 | CC1C=CC(CO)c2c(O)c3c(c(O)c21)C(C)(C)C=CC3=O (stereo unspecified) | 72%
16 | CC1(C)C=CC(=O)c2c(O)ccc(O)c21 | 50%
17 | CC1(C)C=CC(=O)c2c(O)c3c(c(O)c21)CC=CC3 | 68.2%
18 | COc1ccc(O)c2c1C(C)(C)C=CC2=O | 47.5%

assay: Hydroxyl radical scavenging activity at 0.6 mM by ESR; assay type: functional

Row | Structure (SMILES) | Activity
19 | CC1C=CC(CO)c2c(O)c3c(c(O)c21)C(=O)C=CC3(C)C (stereo unspecified) | 47.5%
20 | COc1ccc(O)c2c1C(=O)C=CC2(C)C | 47.5%
21 | CC1C=CC(CO)c2c(O)c3c(c(O)c21)C(C)(C)C=CC3=O (stereo unspecified) | 47.5%
22 | CC1(C)C=CC(=O)c2c(O)ccc(O)c21 | 47.5%
23 | CC1(C)C=CC(=O)c2c(O)c3c(c(O)c21)CC=CC3 | 47.5%
24 | COc1ccc(O)c2c1C(C)(C)C=CC2=O | 47.5%

assay: DPPH radical scavenging activity at 1.0 mM by ESR; assay type: functional

Row | Structure (SMILES) | Activity
25 | CC1C=CC(CO)c2c(O)c3c(c(O)c21)C(=O)C=CC3(C)C (stereo unspecified) | 4%
26 | COc1ccc(O)c2c1C(=O)C=CC2(C)C | 4%
27 | CC1C=CC(CO)c2c(O)c3c(c(O)c21)C(C)(C)C=CC3=O (stereo unspecified) | 4%
28 | CC1(C)C=CC(=O)c2c(O)ccc(O)c21 | 4%
29 | CC1(C)C=CC(=O)c2c(O)c3c(c(O)c21)CC=CC3 | 4%
30 | COc1ccc(O)c2c1C(C)(C)C=CC2=O | 4%

assay: DPPH radical scavenging activity at 2.0 mM by ESR; assay type: functional

Row | Structure (SMILES) | Activity
31 | CC1C=CC(CO)c2c(O)c3c(c(O)c21)C(=O)C=CC3(C)C (stereo unspecified) | 93%
